Data published in PubChem BioAssay (NCI).
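1) Cells in 96-well plates. 2) Compound, 48 h, 5 concentrations. 3) Linear interpolation between surrounding doses. 4) Unreached endpoint = highest concentration. TGI is the concentration that stops growth completely.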

How the values were obtained:
Assay in all cases: growth of human tumour cells (NCI), 48 h
PC-3 prostate = test system: PC-3 prostate
MALME-3M melanoma = test system: MALME-3M melanoma
HT29 colon = test system: HT29 colon
SN12C renal = test system: SN12C renal
NCI-H522 lung = test system: NCI-H522 lung
MDA-MB-435 = test system: MDA-MB-435
BT-549 breast = test system: BT-549 breast
NCI-H460 lung = test system: NCI-H460 lung
OVCAR-4 ovarian = test system: OVCAR-4 ovarian
DU-145 prostate = test system: DU-145 prostate
RXF 393 renal = test system: RXF 393 renal
KM12 colon = test system: KM12 colon
MOLT-4 leukemia = test system: MOLT-4 leukemia
LOX IMVI melanoma = test system: LOX IMVI melanoma
COLO 205 colon = test system: COLO 205 colon
UACC-257 melanoma = test system: UACC-257 melanoma
SR leukemia = test system: SR leukemia
IGROV1 ovarian = test system: IGROV1 ovarian
UO-31 renal = test system: UO-31 renal
CAKI-1 renal = test system: CAKI-1 renal
SF-539 CNS = test system: SF-539 CNS
MDA-N = test system: MDA-N
SF-295 CNS = test system: SF-295 CNS
ACHN renal = test system: ACHN renal
OVCAR-3 ovarian = test system: OVCAR-3 ovarian
SK-MEL-5 melanoma = test system: SK-MEL-5 melanoma
HS 578T breast = test system: HS 578T breast
T-47D breast = test system: T-47D breast
NCI-H23 lung = test system: NCI-H23 lung
HCT-15 colon = test system: HCT-15 colon
A549 NSCLC = test system: A549 NSCLC
786-0 renal = test system: 786-0 renal
SK-OV-3 ovarian = test system: SK-OV-3 ovarian
HCT-116 colon = test system: HCT-116 colon
OVCAR-5 ovarian = test system: OVCAR-5 ovarian
SNB-75 CNS = test system: SNB-75 CNS
K-562 leukemia = test system: K-562 leukemia
HL-60(TB) leukemia = test system: HL-60(TB) leukemia
HOP-92 NSCLC = test system: HOP-92 NSCLC
TK-10 renal = test system: TK-10 renal
SNB-19 CNS = test system: SNB-19 CNS
M14 melanoma = test system: M14 melanoma
HOP-62 NSCLC = test system: HOP-62 NSCLC
MDA-MB-231 breast = test system: MDA-MB-231 breast
NCI/ADR-RES ovarian = test system: NCI/ADR-RES ovarian
NCI-H226 lung = test system: NCI-H226 lung
SF-268 CNS = test system: SF-268 CNS
RPMI-8226 leukemia = test system: RPMI-8226 leukemia
SW-620 colon = test system: SW-620 colon
EKVX NSCLC = test system: EKVX NSCLC
CCRF-CEM leukemia = test system: CCRF-CEM leukemia
OVCAR-8 ovarian = test system: OVCAR-8 ovarian
SK-MEL-28 melanoma = test system: SK-MEL-28 melanoma
SK-MEL-2 melanoma = test system: SK-MEL-2 melanoma
U251 CNS = test system: U251 CNS
A498 renal = test system: A498 renal
MCF7 breast = test system: MCF7 breast
UACC-62 melanoma = test system: UACC-62 melanoma
HCC-2998 colon = test system: HCC-2998 colon

COc1ccc(-c2cc(-c3cc(F)c(Cl)cc3Cl)[nH]n2)cc1OC
TGI (PC-3 prostate): 79.1 µM | TGI (MALME-3M melanoma): > 100 µM | TGI (HT29 colon): 76.6 µM | TGI (SN12C renal): 62.9 µM | TGI (NCI-H522 lung): 81.8 µM | TGI (MDA-MB-435): > 100 µM | TGI (BT-549 breast): > 100 µM | TGI (NCI-H460 lung): > 100 µM | TGI (OVCAR-4 ovarian): > 100 µM | TGI (DU-145 prostate): > 100 µM | TGI (RXF 393 renal): 43.8 µM | TGI (KM12 colon): > 100 µM | TGI (MOLT-4 leukemia): > 100 µM | TGI (LOX IMVI melanoma): 42.1 µM | TGI (COLO 205 colon): 47 µM | TGI (UACC-257 melanoma): > 100 µM | TGI (SR leukemia): 43.8 µM | TGI (IGROV1 ovarian): > 100 µM | TGI (UO-31 renal): > 100 µM | TGI (CAKI-1 renal): > 100 µM | TGI (SF-539 CNS): 37.3 µM | TGI (MDA-N): > 100 µM | TGI (SF-295 CNS): 73.7 µM | TGI (ACHN renal): 30.4 µM | TGI (OVCAR-3 ovarian): 41.3 µM | TGI (SK-MEL-5 melanoma): 47.3 µM | TGI (HS 578T breast): > 100 µM | TGI (T-47D breast): > 100 µM | TGI (NCI-H23 lung): > 100000 nM | TGI (HCT-15 colon): > 100 µM | TGI (A549 NSCLC): > 100 µM | TGI (786-0 renal): 42.4 µM | TGI (SK-OV-3 ovarian): > 100 µM | TGI (HCT-116 colon): 83.6 µM | TGI (OVCAR-5 ovarian): > 100 µM | TGI (SNB-75 CNS): 61.5 µM | TGI (K-562 leukemia): > 100 µM | TGI (HL-60(TB) leukemia): 55 µM | TGI (HOP-92 NSCLC): 67.8 µM | TGI (TK-10 renal): > 100 µM | TGI (SNB-19 CNS): > 100 µM | TGI (M14 melanoma): > 100 µM | TGI (HOP-62 NSCLC): > 100 µM | TGI (MDA-MB-231 breast): > 100 µM | TGI (NCI/ADR-RES ovarian): > 100 µM | TGI (NCI-H226 lung): 52.5 µM | TGI (SF-268 CNS): > 100 µM | TGI (RPMI-8226 leukemia): 41 µM | TGI (SW-620 colon): 74.2 µM | TGI (EKVX NSCLC): > 100 µM | TGI (CCRF-CEM leukemia): 75.9 µM | TGI (OVCAR-8 ovarian): > 100 µM | TGI (SK-MEL-28 melanoma): > 100 µM | TGI (SK-MEL-2 melanoma): > 100 µM | TGI (U251 CNS): > 100 µM

CC(=O)N=C1C=C(NC(C)=O)C(=O)c2ccccc21
TGI (PC-3 prostate): 7.49 µM | TGI (MALME-3M melanoma): 3.62 µM | TGI (HT29 colon): 6.27 µM | TGI (SN12C renal): 3.47 µM | TGI (NCI-H522 lung): 3.06 µM | TGI (MDA-MB-435): 3.48 µM | TGI (BT-549 breast): 4.85 µM | TGI (A498 renal): 28.6 µM | TGI (NCI-H460 lung): 28.1 µM | TGI (OVCAR-4 ovarian): 3.09 µM | TGI (DU-145 prostate): 3.18 µM | TGI (RXF 393 renal): 5.46 µM | TGI (KM12 colon): 17.5 µM | TGI (MCF7 breast): 3.46 µM | TGI (MOLT-4 leukemia): 5.17 µM | TGI (LOX IMVI melanoma): 3.19 µM | TGI (COLO 205 colon): 3.79 µM | TGI (UACC-257 melanoma): 3.33 µM | TGI (SR leukemia): 4.06 µM | TGI (IGROV1 ovarian): 3.59 µM | TGI (UO-31 renal): 4.26 µM | TGI (CAKI-1 renal): 3.43 µM | TGI (SF-539 CNS): 6.39 µM | TGI (MDA-N): 3.38 µM | TGI (SF-295 CNS): 8.88 µM | TGI (ACHN renal): 3.12 µM | TGI (SK-MEL-5 melanoma): 3.19 µM | TGI (HS 578T breast): 56.5 µM | TGI (T-47D breast): 4.05 µM | TGI (NCI-H23 lung): 2300 nM | TGI (HCT-15 colon): 9.13 µM | TGI (A549 NSCLC): 19.1 µM | TGI (786-0 renal): 3.37 µM | TGI (UACC-62 melanoma): 6.18 µM | TGI (SK-OV-3 ovarian): 19.9 µM | TGI (HCT-116 colon): 3.62 µM | TGI (OVCAR-5 ovarian): 4.58 µM | TGI (SNB-75 CNS): 8.66 µM | TGI (K-562 leukemia): 7.01 µM | TGI (HL-60(TB) leukemia): 6.84 µM | TGI (HOP-92 NSCLC): 3.15 µM | TGI (TK-10 renal): 12.3 µM | TGI (SNB-19 CNS): 7.9 µM | TGI (M14 melanoma): 3.33 µM | TGI (HOP-62 NSCLC): 40.4 µM | TGI (NCI/ADR-RES ovarian): 7.59 µM | TGI (NCI-H226 lung): 14.9 µM | TGI (SF-268 CNS): 10.2 µM | TGI (HCC-2998 colon): 34.3 µM | TGI (RPMI-8226 leukemia): 4.13 µM | TGI (SW-620 colon): 3.86 µM | TGI (EKVX NSCLC): 12.5 µM | TGI (CCRF-CEM leukemia): 7.62 µM | TGI (OVCAR-8 ovarian): 6.04 µM | TGI (SK-MEL-28 melanoma): 8.04 µM | TGI (SK-MEL-2 melanoma): 10.7 µM | TGI (U251 CNS): 10.7 µM
